{"source": "patent US5244678A", "about": "“Pharmaceutical composition containing a local anesthetic and/or centrally acting analgesic encapsulated in liposomes” (Ire-Celltarg S.A., priority 1986, dated 1993)", "key": {"[1]": {"experiment": "Blood kinetics in whole blood after peridural injection in rabbits", "assay_type": "in vivo", "conditions": "rabbit", "procedure": "Biodistribution and pharmacokinetics of the liposomes which have incorporated bupivacaine, administered peridurally\nThe formation of MLVs takes place by adding 3 ml of 0.3M Tris-HCl buffer, pH 8, followed by 5 centrifugations at 5000 g in the same buffer.\nThe results are expressed as a percentage of the injected dose (ID) in the whole blood."}, "[2]": {"experiment": "Urinary excretion of radioactivity 2 hours after peridural injection", "assay_type": "in vivo", "conditions": "rabbit, mean ± standard deviation, n=3", "procedure": "Radioactivity excreted in the urine (ID×10^2) 2 hours after the peridural injection of [^3 H]Ch-labeled SUV, of MLV which has integrated ^3 H-labeled bupivacaine, or of non-encapsulated bupivacaine. Mean±standard deviation; the number in brackets=the number of animals."}, "[3]": {"experiment": "Biodistribution in the liver and heart 4 hours after peridural injection", "assay_type": "in vivo", "conditions": "rabbit, mean ± standard deviation, n=3", "procedure": "0.2 ml of the centrifugation pellet are administered peridurally to rabbits, under the same conditions as in Example 1.\nBy way of control, 4.5 mg of bupivacaine for clinical use (Marcaine®-Astra-[…] strength hydrochloride solution) is administered under the same conditions with or without adrenaline, and with the addition of 0.01 mCi of [^3 H]bupivacaine, this combination being present in a total 0.2 ml of solution.\nLikewise, by way of control, SUVs without bupivacaine are administered in the course of this study, under the conditions stated in Example 1.\nThe animals are sacrificed 120 and 240 minutes after the injection, and the organs and tissues are sampled under the same conditions as those of Example 1.\nBiodistribution of [^3 H]Ch SUV, of MLVS which have integrated [^3 H]bupivacaine, and of bupivacaine, in the liver and heart 4 hours after the peridural injection (ID×10^2)."}, "[4]": {"experiment": "Uptake by the nervous tissues after peridural injection", "assay_type": "in vivo", "conditions": "rabbit, mean ± standard deviation, n=3", "source_text": "Mean±standarddeviation; number in brackets=number of animals."}, "[5]": {"tested_on": "tail of rats", "experiment": "Analgesic effect: threshold of the pain induced by an electric shock to the tail of rats", "assay_type": "in vivo", "conditions": "rat tail, point S2", "quoted_text": "The analgesic effect is measured by the increase in the threshold of the pain induced by an electric shock to the tail of rats.\nLipid film: Egg Pc/Chol, 4:3-60 mg of lipids (equivalent to 43.26 mg of egg Pc and 16.74 mg of Chol)+5 mg of bupivacaine base in lyophilized, liposoluble form. Formation of the liposomes: Suspension of the lipid film in the form of multilamellar liposomes in a 0.3M Tris-HCl buffer, pH 8 (3 ml). The liposomal suspension is centrifuged, and the liposomal pellet is injected as it is (0.5 ml) under the skin, in the rat's tail at a point S2.\nThe pain threshold is measured by electrical excitation at S2, and then at S1 (S1, situated 5 cm downstream from the injection point, serves for taking a reference with respect to the injection point, and also for measuring the possible diffusion of the product injected at S2)."}, "[6]": {"tested_on": "motor fibers", "conditions": "bupivacaine used today in anesthesia; general knowledge; cited from earlier work"}}, "note": "Entries after “also recorded” stand apart in the source; their conditions may differ."}
{"smiles": "CCCCN1CCCCC1C(=O)Nc1c(C)cccc1C", "note": "(stereo not drawn) [Bupivacaine, bupivacaine]", "values": [{"measurement": "highest blood level (blood peak)", "setting": "[1]", "value": "1.4 % of the injected dose"}, {"measurement": "Radioactivity excreted in the urine", "setting": "[2]", "value": "11.633 ± 0.518", "unit": "ID×10^2"}, {"measurement": "Biodistribution in the heart", "setting": "[3]", "value": "2.142 ± 0.301", "unit": "ID×10^2"}, {"measurement": "Biodistribution in the liver", "setting": "[3]", "value": "20.477 ± 1.458", "unit": "ID×10^2"}, {"measurement": "Uptake by brachial plexus", "setting": "[4]; 2 hrs", "value": "0.295 ± 0.048", "unit": "ID in 1 g×10^3"}, {"measurement": "Uptake by cauda equina", "setting": "[4]; 2 hrs", "value": "0.485 ± 0.057", "unit": "ID in 1 g×10^3"}, {"measurement": "Uptake by lumbar marrow", "setting": "[4]; 2 hrs", "value": "0.411 ± 0.094", "unit": "ID in 1 g×10^3"}, {"measurement": "Uptake by sciatic nerve", "setting": "[4]; 2 hrs", "value": "0.281 ± 0.026", "unit": "ID in 1 g×10^3"}, {"measurement": "Uptake by brachial plexus", "setting": "[4]; 4 hrs", "value": "1.136 ± 0.008", "unit": "ID in 1 g×10^3"}, {"measurement": "Uptake by cauda equina", "setting": "[4]; 4 hrs", "value": "0.132 ± 0.035", "unit": "ID in 1 g×10^3"}, {"measurement": "Uptake by lumbar marrow", "setting": "[4]; 4 hrs", "value": "0.169 ± 0.046", "unit": "ID in 1 g×10^3"}, {"measurement": "Uptake by nerve roots", "setting": "[4]; 4 hrs", "value": "0.153 ± 0.023", "unit": "ID in 1 g×10^3"}, {"measurement": "Uptake by sciatic nerve", "setting": "[4]; 4 hrs", "value": "0.132 ± 0.028", "unit": "ID in 1 g×10^3"}, {"measurement": "time of rise of the pain threshold after injection", "setting": "[5]", "value": "less than one hour"}, {"measurement": "effect on sensory and motor fibers", "setting": "[6]", "value": "blocks the sensory fibers and not the motor fibers; also recorded: affects motor fibers to only a small extent, if at all"}]}
